Nine compounds from PubChem BioAssay AID180 (DTP/NCI, 2004) can be followed below.

For this experiment, the system named is BDF1 mice, Adenocarcinoma 755 s.c., tumor weight T/C. The experiment in a line: NCI In Vivo Anticancer Drug Screen. Data for tumor model Adenocarcinoma 755 (subcutaneous) in B6D2F1 (BDF1) mice. To be noted: endpoint: mean tumor weight, higher = larger tumour. The gist of the method:
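Compound activity was tested in mice carrying transplanted tumors. Survival or tumor size was measured, and each value is the treated-group measurement divided by that of the vehicle-treated control group (T/C).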

[1] abbreviates: dose: 100.0 mg/kg/injection, schedule: Q01DX011 (ip), vehicle: carboxymethylcellulose (CMC).
Where [2] appears, read: dose: 50.0 mg/kg/injection, schedule: Q01DX011 (ip), vehicle: methylcellulose (MC).
[3] abbreviates: dose: 100.0 mg/kg/injection, schedule: Q01DX011 (ip), vehicle: methylcellulose (MC).
Where [4] appears, read: dose: 30.0 mg/kg/injection, schedule: Q01DX011 (ip), vehicle: carboxymethylcellulose (CMC).
Setting [5] is: dose: 15.0 mg/kg/injection, schedule: Q01DX011 (ip), vehicle: carboxymethylcellulose (CMC).

Values joined by “and” are separate entries in the source; they are usually repeats but may differ in a detail not shown here. Equal values may be shown once.

Consider `O=C1C(NC(=O)C2CCCCC2)=C(N2CC2)C(=O)C(NC(=O)C2CCCCC2)=C1N1CC1`, for which the T/C (usually the ratio of treated to control) runs as follows: (dose: 43.75 mg/kg/injection, schedule: Q01DX011 (ip), vehicle: carboxymethylcellulose (CMC)) 48 % of control; (dose: 44.0 mg/kg/injection, schedule: Q01DX011 (ip), vehicle: carboxymethylcellulose (CMC)) 67 % of control; (dose: 44.0 mg/kg/injection, schedule: Q01DX011 (ip), vehicle: other) 76 % of control; (dose: 87.5 mg/kg/injection, schedule: Q01DX011 (ip), vehicle: carboxymethylcellulose (CMC)) 9 % of control and 30 % of control; (dose: 88.0 mg/kg/injection, schedule: Q01DX011 (ip), vehicle: other) 21 % of control; under setting [1], 104 % of control. Further, the T/C runs as follows: (dose: 175.0 mg/kg/injection, schedule: Q01DX011 (ip), vehicle: carboxymethylcellulose (CMC)) 12 % of control and 33 % of control; (dose: 175.0 mg/kg/injection, schedule: Q01DX011 (ip), vehicle: other) 28 % of control; (dose: 200.0 mg/kg/injection, schedule: Q01DX011 (oral), vehicle: carboxymethylcellulose (CMC)) 93 % of control; (dose: 400.0 mg/kg/injection, schedule: Q01DX011 (oral), vehicle: carboxymethylcellulose (CMC)) 50 % of control; (dose: 800.0 mg/kg/injection, schedule: Q01DX011 (oral), vehicle: carboxymethylcellulose (CMC)) 68 % of control.
As to `CCCn1cnc2c(SCCc3ccccc3)nc(N)nc21`, the T/C is, setting by setting: under setting [2], 47 % of control; under setting [3], 15 % of control; (dose: 200.0 mg/kg/injection, schedule: Q01DX011 (ip), vehicle: methylcellulose (MC)) 18 % of control.
Regarding `O=C(Nc1ccc(N=Nc2ccc(O)c(C(=O)O)c2)cc1)c1ccc(C(=O)Nc2ccc(N=Nc3ccc(O)c(C(=O)O)c3)cc2)cc1`, the T/C reads like this: under setting [4], 92 % of control; (dose: 60.0 mg/kg/injection, schedule: Q01DX011 (ip), vehicle: carboxymethylcellulose (CMC)) 75 % of control; (dose: 120.0 mg/kg/injection, schedule: Q01DX011 (ip), vehicle: carboxymethylcellulose (CMC)) 102 % of control; (dose: 240.0 mg/kg/injection, schedule: Q01DX011 (ip), vehicle: carboxymethylcellulose (CMC)) 98 % of control.
On to `C#CCn1cnc2c(Cl)ncnc21`, for which the T/C is 61 % of control (dose: 5.0 mg/kg/injection, schedule: Q01DX011 (ip), vehicle: carboxymethylcellulose (CMC)); 48 % of control under setting [5]; 13 % of control (dose: 25.0 mg/kg/injection, schedule: Q01DX011 (ip), vehicle: carboxymethylcellulose (CMC)); 14 % of control (dose: 35.0 mg/kg/injection, schedule: Q01DX011 (ip), vehicle: carboxymethylcellulose (CMC)); 8 % of control (dose: 50.0 mg/kg/injection, schedule: Q01DX011 (ip), vehicle: carboxymethylcellulose (CMC)); 3 % of control under setting [1].
As for `NC(=O)c1ccccc1Nc1ccc([N+](=O)[O-])cc1[N+](=O)[O-]`, the T/C runs as follows: (dose: 34.0 mg/kg/injection, schedule: Q01DX011 (ip), vehicle: carboxymethylcellulose (CMC)) 102 % of control; under setting [1], 115 % of control.
Turning to `Cn1c(N)nc2nc[nH]c2c1=S`, the T/C (dose: 4.0 mg/kg/injection, schedule: Q01DX011 (oral), vehicle: carboxymethylcellulose (CMC)) was 114 % of control; the T/C (dose: 4.0 mg/kg/injection, schedule: Q01DX011 (oral), vehicle: saline) was 91 % of control; the T/C (dose: 5.0 mg/kg/injection, schedule: Q01DX011 (ip), vehicle: methylcellulose (MC)) is 4 % of control; the T/C (dose: 6.0 mg/kg/injection, schedule: Q01DX011 (ip), vehicle: methylcellulose (MC)) is 5 % of control; the T/C (dose: 7.0 mg/kg/injection, schedule: Q01DX011 (ip), vehicle: methylcellulose (MC)) is 4 % of control; the T/C (dose: 8.0 mg/kg/injection, schedule: Q01DX011 (oral), vehicle: carboxymethylcellulose (CMC)) was 112 % of control. Besides, the T/C is 92 % of control (dose: 8.0 mg/kg/injection, schedule: Q01DX011 (oral), vehicle: saline); 119 % of control (dose: 16.0 mg/kg/injection, schedule: Q01DX011 (oral), vehicle: carboxymethylcellulose (CMC)); 80 % of control (dose: 16.0 mg/kg/injection, schedule: Q01DX011 (oral), vehicle: saline); 203 % of control (dose: 32.0 mg/kg/injection, schedule: Q01DX011 (oral), vehicle: carboxymethylcellulose (CMC)); 86 % of control (dose: 32.0 mg/kg/injection, schedule: Q01DX011 (oral), vehicle: saline); 151 % of control (dose: 64.0 mg/kg/injection, schedule: Q01DX011 (oral), vehicle: carboxymethylcellulose (CMC)). Further, the T/C (dose: 64.0 mg/kg/injection, schedule: Q01DX011 (oral), vehicle: saline) is 120 % of control; the T/C (dose: 500.0 mg/kg/injection, schedule: Q01DX011 (oral), vehicle: carboxymethylcellulose (CMC)) is 85 % of control; the T/C (dose: 750.0 mg/kg/injection, schedule: Q01DX011 (oral), vehicle: carboxymethylcellulose (CMC)) was 90 % of control; the T/C (dose: 310.0 micrograms/kg/injection, schedule: Q01DX011 (ip), vehicle: methylcellulose (MC)) is 32 % of control; the T/C (dose: 625.0 micrograms/kg/injection, schedule: Q01DX011 (ip), vehicle: methylcellulose (MC)) was 64 % of control; the T/C (dose: 1000.0 micrograms/kg/injection, schedule: Q01DX011 (ip), vehicle: methylcellulose (MC)) is 3 % of control. The T/C is 18 % of control (dose: 1250.0 micrograms/kg/injection, schedule: Q01DX011 (ip), vehicle: methylcellulose (MC)); 3 % of control (dose: 2000.0 micrograms/kg/injection, schedule: Q01DX011 (ip), vehicle: methylcellulose (MC)); 4 % of control (dose: 2500.0 micrograms/kg/injection, schedule: Q01DX011 (ip), vehicle: methylcellulose (MC)); 4 % of control (dose: 5000.0 micrograms/kg/injection, schedule: Q01DX011 (ip), vehicle: methylcellulose (MC)); 2 % of control (dose: 7500.0 micrograms/kg/injection, schedule: Q01DX011 (ip), vehicle: methylcellulose (MC)).
Consider `CC(C)Cn1cnc2c(SCc3ccc(Cl)cc3Cl)nc(N)nc21`, for which the T/C is 78 % of control (dose: 9.0 mg/kg/injection, schedule: Q01DX011 (ip), vehicle: other); 41 % of control (dose: 12.5 mg/kg/injection, schedule: Q01DX011 (ip), vehicle: methylcellulose (MC)); 78 % of control (dose: 18.0 mg/kg/injection, schedule: Q01DX011 (ip), vehicle: other); 65 % of control (dose: 25.0 mg/kg/injection, schedule: Q01DX011 (ip), vehicle: methylcellulose (MC)); 92 % of control (dose: 37.0 mg/kg/injection, schedule: Q01DX011 (ip), vehicle: other); 74 % of control (dose: 38.0 mg/kg/injection, schedule: Q01DX011 (ip), vehicle: methylcellulose (MC)). Also, the T/C runs as follows: under setting [2], 87 % of control; (dose: 75.0 mg/kg/injection, schedule: Q01DX011 (ip), vehicle: methylcellulose (MC)) 113 % of control; under setting [3], 69 % of control; (dose: 150.0 mg/kg/injection, schedule: Q01DX011 (ip), vehicle: methylcellulose (MC)) 80 % of control; (dose: 200.0 mg/kg/injection, schedule: Q01DX011 (ip), vehicle: other) 7 % of control and 15 % of control; (dose: 300.0 mg/kg/injection, schedule: Q01DX011 (ip), vehicle: methylcellulose (MC)) 59 % of control. Also, the T/C (dose: 400.0 mg/kg/injection, schedule: Q01DX011 (ip), vehicle: other) is 24 % of control and the T/C (dose: 600.0 mg/kg/injection, schedule: Q01DX011 (ip), vehicle: methylcellulose (MC)) is 91 % of control.
On to `CCCCCn1cnc2c(=S)nc[nH]c21`, for which the T/C was 94 % of control (dose: 31.0 mg/kg/injection, schedule: Q01DX011 (ip), vehicle: carboxymethylcellulose (CMC)); 78 % of control (dose: 62.0 mg/kg/injection, schedule: Q01DX011 (ip), vehicle: carboxymethylcellulose (CMC)); 43 % of control (dose: 125.0 mg/kg/injection, schedule: Q01DX011 (ip), vehicle: carboxymethylcellulose (CMC)); 10 % of control (dose: 250.0 mg/kg/injection, schedule: Q01DX011 (ip), vehicle: carboxymethylcellulose (CMC)); 6 % of control (dose: 500.0 mg/kg/injection, schedule: Q01DX011 (ip), vehicle: carboxymethylcellulose (CMC)).
For the compound `Nc1ccc2cc(S(=O)(=O)O)cc(O)c2c1N=Nc1ccc(NC(=O)c2ccc(C(=O)Nc3ccc(N=Nc4c(N)ccc5cc(S(=O)(=O)O)cc(O)c45)c(S(=O)(=O)O)c3)cc2)cc1S(=O)(=O)O`, the T/C is 100 % of control (dose: 3.0 mg/kg/injection, schedule: Q01DX011 (ip), vehicle: carboxymethylcellulose (CMC)); 45 % of control (dose: 7.0 mg/kg/injection, schedule: Q01DX011 (ip), vehicle: carboxymethylcellulose (CMC)); 56 % of control under setting [5]; 48 % of control under setting [4].
